From patent US11497752B2, “Compounds and uses thereof” (Foghorn Therapeutics Inc., priority 2018, dated 2022)

Assays:
[1] = target: BRM (Homo sapiens, UniProt P51531); assay: ATPase catalytic activity of BRM (ADP-Glo in vitro biochemical assay); details: for BRM Max % Inhibition: Table 6
[2] = target: BRG-1 (Homo sapiens, UniProt P51532); assay: ATPase catalytic activity of BRG-1 (ADP-Glo in vitro biochemical assay); details: for BRG1 Max % Inhibition: Table 6
Sequence of BRG-1 (P51532 whole entry): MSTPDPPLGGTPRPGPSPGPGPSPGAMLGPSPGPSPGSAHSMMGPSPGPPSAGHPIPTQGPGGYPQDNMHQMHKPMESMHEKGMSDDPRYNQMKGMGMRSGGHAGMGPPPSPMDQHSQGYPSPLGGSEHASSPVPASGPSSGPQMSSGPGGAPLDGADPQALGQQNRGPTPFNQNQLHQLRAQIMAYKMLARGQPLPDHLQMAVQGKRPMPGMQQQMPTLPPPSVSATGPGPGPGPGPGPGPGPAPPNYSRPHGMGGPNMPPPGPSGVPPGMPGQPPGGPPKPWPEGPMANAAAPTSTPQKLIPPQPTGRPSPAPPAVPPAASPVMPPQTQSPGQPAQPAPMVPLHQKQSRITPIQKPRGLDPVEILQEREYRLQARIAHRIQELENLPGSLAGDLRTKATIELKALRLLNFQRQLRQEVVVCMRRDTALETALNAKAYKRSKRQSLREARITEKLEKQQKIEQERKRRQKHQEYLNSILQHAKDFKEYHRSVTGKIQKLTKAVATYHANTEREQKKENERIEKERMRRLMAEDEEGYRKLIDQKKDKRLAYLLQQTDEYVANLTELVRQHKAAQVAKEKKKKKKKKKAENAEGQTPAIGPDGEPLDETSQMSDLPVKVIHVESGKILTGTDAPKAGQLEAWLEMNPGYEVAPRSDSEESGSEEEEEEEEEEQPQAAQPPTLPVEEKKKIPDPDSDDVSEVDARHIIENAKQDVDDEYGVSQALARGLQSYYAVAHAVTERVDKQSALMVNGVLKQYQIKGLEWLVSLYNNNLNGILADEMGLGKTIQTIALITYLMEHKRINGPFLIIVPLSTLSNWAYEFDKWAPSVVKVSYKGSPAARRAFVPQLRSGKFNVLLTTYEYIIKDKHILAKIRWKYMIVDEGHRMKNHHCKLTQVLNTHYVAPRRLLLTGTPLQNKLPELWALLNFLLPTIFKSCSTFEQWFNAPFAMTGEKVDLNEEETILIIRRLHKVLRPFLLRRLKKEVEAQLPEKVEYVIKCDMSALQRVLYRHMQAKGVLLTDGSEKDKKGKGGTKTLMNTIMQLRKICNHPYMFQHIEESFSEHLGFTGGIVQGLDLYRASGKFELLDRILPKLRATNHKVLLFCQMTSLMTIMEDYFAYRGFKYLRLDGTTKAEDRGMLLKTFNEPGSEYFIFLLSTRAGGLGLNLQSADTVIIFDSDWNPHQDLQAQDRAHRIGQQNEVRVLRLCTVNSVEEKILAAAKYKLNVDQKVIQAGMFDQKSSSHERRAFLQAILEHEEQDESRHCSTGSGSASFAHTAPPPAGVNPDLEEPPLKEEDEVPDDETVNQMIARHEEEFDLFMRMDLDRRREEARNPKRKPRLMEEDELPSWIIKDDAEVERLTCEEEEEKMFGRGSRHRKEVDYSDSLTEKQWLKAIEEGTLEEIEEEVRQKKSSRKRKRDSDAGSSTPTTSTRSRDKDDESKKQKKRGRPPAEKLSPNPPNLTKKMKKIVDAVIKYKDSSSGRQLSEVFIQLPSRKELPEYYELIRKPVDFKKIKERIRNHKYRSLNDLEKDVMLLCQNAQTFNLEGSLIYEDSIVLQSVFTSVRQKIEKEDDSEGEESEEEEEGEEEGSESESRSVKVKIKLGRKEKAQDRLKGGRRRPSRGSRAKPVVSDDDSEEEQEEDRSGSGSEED

Sequence of BRM (P51531 whole entry): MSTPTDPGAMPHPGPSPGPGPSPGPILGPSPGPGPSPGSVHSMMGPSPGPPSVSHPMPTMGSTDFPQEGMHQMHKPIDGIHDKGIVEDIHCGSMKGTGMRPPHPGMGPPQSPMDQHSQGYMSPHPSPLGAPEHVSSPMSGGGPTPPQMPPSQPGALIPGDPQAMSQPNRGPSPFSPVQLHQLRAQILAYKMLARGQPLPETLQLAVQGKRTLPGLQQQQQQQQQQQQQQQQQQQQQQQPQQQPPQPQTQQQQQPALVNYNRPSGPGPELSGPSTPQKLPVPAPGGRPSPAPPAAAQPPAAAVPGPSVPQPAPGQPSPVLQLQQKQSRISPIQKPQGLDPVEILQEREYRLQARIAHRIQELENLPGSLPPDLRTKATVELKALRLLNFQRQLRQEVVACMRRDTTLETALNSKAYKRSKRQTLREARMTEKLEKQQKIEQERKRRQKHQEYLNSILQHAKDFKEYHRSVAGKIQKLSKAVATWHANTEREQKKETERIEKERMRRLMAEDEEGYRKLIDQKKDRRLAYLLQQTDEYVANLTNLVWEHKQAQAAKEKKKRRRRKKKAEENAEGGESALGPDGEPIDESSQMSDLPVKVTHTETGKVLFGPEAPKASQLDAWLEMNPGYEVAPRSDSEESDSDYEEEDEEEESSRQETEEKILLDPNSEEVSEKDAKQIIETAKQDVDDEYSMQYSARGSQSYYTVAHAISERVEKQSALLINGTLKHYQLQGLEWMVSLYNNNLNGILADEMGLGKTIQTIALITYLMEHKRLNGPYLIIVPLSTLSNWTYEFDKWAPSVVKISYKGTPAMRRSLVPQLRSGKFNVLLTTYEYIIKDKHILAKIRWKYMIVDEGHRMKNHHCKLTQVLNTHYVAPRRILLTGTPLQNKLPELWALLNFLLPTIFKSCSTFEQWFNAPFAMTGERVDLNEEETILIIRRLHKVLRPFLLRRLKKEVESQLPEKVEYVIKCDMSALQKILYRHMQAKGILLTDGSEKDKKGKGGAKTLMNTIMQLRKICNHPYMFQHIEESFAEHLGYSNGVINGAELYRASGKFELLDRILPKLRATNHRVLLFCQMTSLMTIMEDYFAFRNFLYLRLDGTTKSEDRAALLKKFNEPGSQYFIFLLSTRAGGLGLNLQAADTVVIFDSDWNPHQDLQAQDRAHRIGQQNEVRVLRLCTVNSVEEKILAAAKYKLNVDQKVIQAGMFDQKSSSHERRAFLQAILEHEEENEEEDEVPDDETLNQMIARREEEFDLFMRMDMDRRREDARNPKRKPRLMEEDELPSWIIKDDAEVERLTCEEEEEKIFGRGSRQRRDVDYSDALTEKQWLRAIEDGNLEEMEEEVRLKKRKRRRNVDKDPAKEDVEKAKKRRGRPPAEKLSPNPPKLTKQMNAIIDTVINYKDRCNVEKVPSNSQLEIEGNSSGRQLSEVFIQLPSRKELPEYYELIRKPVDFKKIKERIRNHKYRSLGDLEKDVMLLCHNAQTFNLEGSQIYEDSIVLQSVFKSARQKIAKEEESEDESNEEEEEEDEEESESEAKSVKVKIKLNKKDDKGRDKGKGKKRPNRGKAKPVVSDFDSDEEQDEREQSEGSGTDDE

| IC50 [1] [nM] | BRM Max % Inhibition [1] [%] | IC50 [2] [nM] | BRG1 Max % Inhibition [2] [%] | Compound |
| --- | --- | --- | --- | --- |
| < 100 | >95 | < 100 | >95 | CNC(=O)C(C)(C)n1ccc(-c2cccc(-c3csc(NC(=O)CNC(=O)c4ccc(N)cc4)n3)c2)n1 [Compound 213, 4-amino-N-[2-[[4-[3-[1-[1,1-dimethyl-2-(methylamino)-2-oxo-ethyl]pyrazol-3-yl]phenyl]thiazol-2-yl]amino]-2-oxo-ethyl]benzamide] |
| < 100 | >95 | < 100 | >95 | CSCC[C@H](NC(=O)c1ccc(N)cc1)C(=O)Nc1nc(-c2cccc(-c3ccnc(C)c3)c2)cs1 [Compound 214, (S)-4-amino-N-(1-((4-(3-(2-methylpyridin-4-yl)phenyl)thiazol-2-yl)amino)-4-(methylthio)-1-oxobutan-2-yl)benzamide] |
| 100 to 1000 | >90 | 100 to 1000 | >90 | Cc1nnc(C(=O)NC(C)(C)c2cc(-c3cccc(-c4csc(NC(=O)CNC(=O)c5ccc(N)cc5)n4)c3)ccn2)o1 [Compound 215, N-[1-[4-[3-[2-[[2-[(4-aminobenzoyl)amino]acetyl]amino]thiazol-4-yl]phenyl]-2-pyridyl]-1-methyl-ethyl]-5-methyl-1,3,4-oxadiazole-2-carboxamide] |
| < 100 | >90 | 100 to 1000 | >95 | CNC(=O)Cn1ccc(-c2cccc(-c3csc(NC(=O)CNC(=O)c4ccc(N)cc4)n3)c2)n1 [Compound 216, 4-amino-N-[2-[[4-[3-[1-[2-(methylamino)-2-oxo-ethyl]pyrazol-3-yl]phenyl]thiazol-2-yl]amino]-2-oxo-ethyl]benzamide] |
| < 100 | >90 | < 100 | >90 | Nc1ccc(C(=O)NCC(=O)Nc2nc(-c3ccnc(-c4ccncc4)c3)cs2)cc1 [Compound 217, 4-amino-N-[2-oxo-2-[[4-[2-(4-pyridyl)-4-pyridyl]thiazol-2-yl]amino]ethyl]benzamide] |
| < 100 | >95 | 100 to 1000 | >90 | Nc1ccc(C(=O)NCC(=O)Nc2nc(-c3cccc(CCc4ccncc4)c3)cs2)cc1 [Compound 218, 4-amino-N-[2-oxo-2-[[4-[3-[2-(4-pyridyl)ethyl]phenyl]thiazol-2-yl]amino]ethyl]benzamide] |
| < 100 | >95 | < 100 | >95 | Nc1ccc(C(=O)NCC(=O)Nc2nc(-c3cccc(-c4ccnc(C5(C(=O)O)CC5)c4)c3)cs2)cc1 [Compound 219, 1-[4-[3-[2-[[2-[(4-aminobenzoyl)amino]acetyl]amino]thiazol-4-yl]phenyl]-2-pyridyl]cyclopropanecarboxylic acid] |
| 100 to 1000 | >95 | 1000 to 10000 | >80 | Cn1cnc(-c2cccc(-c3csc(NC(=O)CNC(=O)c4ccc(N)cc4)n3)c2)c1 [Compound 220, 4-amino-N-[2-[[4-[3-(1-methylimidazol-4-yl)phenyl]thiazol-2-yl]amino]-2-oxo-ethyl]benzamide] |
| 100 to 1000 | >95 | 100 to 1000 | >80 | Nc1ccc(C(=O)NCC(=O)Nc2nc(-c3cccc(-c4ccnc(N5CCCC(N)C5)c4)c3)cs2)cc1 (stereo not shown) [Compound 221, 4-amino-N-[2-[[4-[3-[2-(3-amino-1-piperidyl)-4-pyridyl]phenyl]thiazol-2-yl]amino]-2-oxo-ethyl]benzamide] |
| 100 to 1000 | >95 | 100 to 1000 | >80 | Cc1nc(-c2cccc(-c3csc(NC(=O)CNC(=O)c4ccc(N)cc4)n3)c2)cn1C [Compound 222, 4-amino-N-[2-[[4-[3-(1,2-dimethylimidazol-4-yl)phenyl]thiazol-2-yl]amino]-2-oxo-ethyl]benzamide] |
| < 100 | >95 | < 100 | >90 | CNC(=O)C1(c2cc(-c3cccc(-c4csc(NC(=O)CNC(=O)c5ccc(N)cc5)n4)c3)ccn2)CC1 [Compound 223, 4-amino-N-[2-[[4-[3-[2-[1-(methylcarbamoyl)cyclopropyl]-4-pyridyl]phenyl]thiazol-2-yl]amino]-2-oxo-ethyl]benzamide] |
| < 100 | >95 | < 100 | >90 | Nc1ccc(C(=O)NCC(=O)Nc2nc(-c3cccc(-c4ccnc(CC(=O)O)c4)c3)cs2)cc1 [Compound 224, [2-[4-[3-[2-[[2-[(4-aminobenzoyl)amino]acetyl]amino]thiazol-4-yl]phenyl]-2-pyridyl]acetyl]oxysodium] |
| 100 to 1000 | >80 | 100 to 1000 | >90 | CN(C)C1CCCN(c2cc(-c3cccc(-c4csc(NC(=O)CNC(=O)c5ccc(N)cc5)n4)c3)ccn2)C1 (stereo not shown) [Compound 225, 4-amino-N-[2-[[4-[3-[2-[3-(dimethylamino)-1-piperidyl]-4-pyridyl]phenyl]thiazol-2-yl]amino]-2-oxo-ethyl]benzamide] |
| < 100 | >95 | < 100 | >95 | CNC(=O)C(C)(C)c1cc(-c2cccc(-c3csc(NC(=O)CNC(=O)c4ccc(N)cc4)n3)c2)ccn1 [Compound 226, 4-amino-N-[2-[[4-[3-[2-[1,1-dimethyl-2-(methylamino)-2-oxo-ethyl]-4-pyridyl]phenyl]thiazol-2-yl]amino]-2-oxo-ethyl]benzamide] |
| < 100 | >95 | < 100 | >95 | Nc1ccc(C(=O)NCC(=O)Nc2nc(-c3cccc(-c4ccncn4)c3)cs2)cc1 [Compound 227, 4-amino-N-[2-oxo-2-[[4-(3-pyrimidin-4-ylphenyl)thiazol-2-yl]amino]ethyl]benzamide] |

Further lines, the compound ahead of its results:

| Compound | IC50 [1] [nM] | BRM Max % Inhibition [1] [%] | IC50 [2] [nM] | BRG1 Max % Inhibition [2] [%] |
| --- | --- | --- | --- | --- |
| Nc1ccc(C(=O)NCC(=O)Nc2nc(-c3cccc(-c4ccnc(N5CCCCS5(=O)=O)c4)c3)cs2)cc1 [Compound 203, 4-amino-N-[2-[[4-[3-[2-(1,1-dioxothiazinan-2-yl)-4-pyridyl]phenyl]thiazol-2-yl]amino]-2-oxo-ethyl]benzamide] | 100 to 1000 | >80 | 100 to 1000 | >80 |
| CN1CCN(c2cccc(-c3csc(NC(=O)CNC(=O)c4ccc(N)cc4)n3)c2)CC1=O [Compound 204, 4-amino-N-[2-[[4-[3-(4-methyl-3-oxo-piperazin-1-yl)phenyl]thiazol-2-yl]amino]-2-oxo-ethyl]benzamide] | 100 to 1000 | >80 | 100 to 1000 | >70 |
| CNC(=O)Cc1cc(-c2cccc(-c3csc(NC(=O)CNC(=O)c4ccc(N)cc4)n3)c2)ccn1 [Compound 205, 4-amino-N-[2-[[4-[3-[2-[2-(methylamino)-2-oxo-ethyl]-4-pyridyl]phenyl]thiazol-2-yl]amino]-2-oxo-ethyl]benzamide] | < 100 | >95 | < 100 | >95 |
| CN(C)C(=O)CN(C)c1cc(-c2cccc(-c3csc(NC(=O)CNC(=O)c4ccc(N)cc4)n3)c2)ccn1 [Compound 206, 4-amino-N-[2-[[4-[3-[2-[[2-(dimethylamino)-2-oxo-ethyl]-methyl-amino]-4-pyridyl]phenyl]thiazol-2-yl]amino]-2-oxo-ethyl]benzamide] | 100 to 1000 | >95 | 100 to 1000 | >95 |
| CC(C)c1cc(-c2cccc(-c3csc(NC(=O)CNC(=O)c4ccc(N)cc4)n3)c2)ccn1 [Compound 207, 4-amino-N-[2-[[4-[3-(2-isopropyl-4-pyridyl)phenyl]thiazol-2-yl]amino]-2-oxo-ethyl]benzamide] | < 100 | >95 | < 100 | >95 |
| Nc1ccc(C(=O)NCC(=O)Nc2nc(-c3cncc(-c4ccncc4)c3)cs2)cc1 [Compound 208, 4-amino-N-[2-oxo-2-[[4-[5-(4-pyridyl)-3-pyridyl]thiazol-2-yl]amino]ethyl]benzamide] | 100 to 1000 | >90 | 100 to 1000 | >80 |
| COC(=O)C(C)(C)n1ccc(-c2cccc(-c3csc(NC(=O)CNC(=O)c4ccc(N)cc4)n3)c2)n1 [Compound 209, methyl 2-[3-[3-[2-[[2-[(4-aminobenzoyl)amino]acetyl]amino]thiazol-4-yl]phenyl]pyrazol-1-yl]-2-methyl-propanoate] | < 100 | >95 | < 100 | >95 |
| Nc1ccc(C(=O)NCC(=O)Nc2nc(-c3cccc(-c4ccn(CC(=O)O)n4)c3)cs2)cc1 [Compound 210, 2-[3-[3-[2-[[2-[(4-aminobenzoyl)amino]acetyl]amino]thiazol-4-yl]phenyl]pyrazol-1-yl]acetic acid] | 100 to 1000 | >95 | 100 to 1000 | >80 |
| CC(C)(N)c1cc(-c2cccc(-c3csc(NC(=O)CNC(=O)c4ccc(N)cc4)n3)c2)ccn1 [Compound 211, 4-amino-N-[2-[[4-[3-[2-(1-amino-1-methyl-ethyl)-4-pyridyl]phenyl]thiazol-2-yl]amino]-2-oxo-ethyl]benzamide] | 100 to 1000 | >95 | 100 to 1000 | >90 |
| CC(C)(C(=O)O)n1ccc(-c2cccc(-c3csc(NC(=O)CNC(=O)c4ccc(N)cc4)n3)c2)n1 [Compound 212, 2-[3-[3-[2-[[2-[(4-aminobenzoyl)amino]acetyl]amino]thiazol-4-yl]phenyl]pyrazol-1-yl]-2-methyl-propanoic acid] | 100 to 1000 | >95 | 100 to 1000 | >95 |
